The record followed here is patent publication US9138479B2, “Formulations for the treatment of diabetes” (XERIS PHARMACEUTICALS, INC., priority 2011, dated 2015).

This series in a line: Pramlintide solubility in DMSO and DMSO-water co-solvents (visual inspection). It counts as physicochemical. As to conditions: pH memory 2.0; 20 mg/mL in neat DMSO. The procedure: • 3b. […] The resulting solutions are assessed visually for clarity and/or analyzed for light scattering using visible spectroscopy at […], and used in various downstream applications.
Solutions of pramlintide were prepared at a concentration of 2 mg/mL in 10 mM citrate, pH 2.0, or 10 mM citrate, pH 4.0, each with or without 2 mg/mL trehalose. The solutions were dried by centrifugation under vacuum for approximately 3.5 hours at 25-30° C., or lyophilized as described above.

In the case of `CC[C@H](C)[C@H](NC(=O)[C@@H]1CCCN1C(=O)CNC(=O)[C@H](Cc1ccccc1)NC(=O)[C@H](CC(N)=O)NC(=O)[C@H](CC(N)=O)NC(=O)[C@H](CO)NC(=O)[C@H](CO)NC(=O)[C@H](Cc1c[nH]cn1)NC(=O)[C@@H](NC(=O)[C@H](CC(C)C)NC(=O)[C@H](Cc1ccccc1)NC(=O)[C@H](CC(N)=O)NC(=O)[C@H](C)NC(=O)[C@H](CC(C)C)NC(=O)[C@H](CCCNC(=N)N)NC(=O)[C@H](CCC(N)=O)NC(=O)[C@@H](NC(=O)[C@H](C)NC(=O)[C@@H]1CSSC[C@H](NC(=O)[C@@H](N)CCCCN)C(=O)N[C@@H](CC(N)=O)C(=O)N[C@@H]([C@@H](C)O)C(=O)N[C@@H](C)C(=O)N[C@@H]([C@@H](C)O)C(=O)N1)[C@@H](C)O)C(C)C)C(=O)N[C@@H](CC(C)C)C(=O)N1CCC[C@H]1C(=O)N1CCC[C@H]1C(=O)N[C@H](C(=O)N[C@@H](CC(N)=O)C(=O)N[C@H](C(=O)NCC(=O)N[C@@H](CO)C(=O)N[C@@H](CC(N)=O)C(=O)N[C@H](C(=O)N[C@@H](Cc1ccc(O)cc1)C(N)=O)[C@@H](C)O)C(C)C)[C@@H](C)O` [pramlintide], the “appearance of solution by visual inspection” value was “flowable and completely clear”.
